Assay results: ChEMBL document CHEMBL1151324, “Cytotoxic geranyl stilbenes from Macaranga schweinfurthii” (J Nat Prod, 1998)
In brackets after ≈: the same amount, converted by molar mass.

What was measured:
[1] = test system: A549; assay: Cytotoxicity against human A549 cells after 1 hr; type: functional, cell-based; settings: A549, 1 h
[2] = test system: A549; assay: Cytotoxicity against human A549 cells after 1 hr compound washout; type: functional, cell-based; settings: A549, 1 h
[3] = test system: A549; assay: Cytotoxicity against human A549 cells after 48 hrs; type: functional, cell-based; settings: A549, 48 h
[4] = test system: SF-295; assay: Cytotoxicity against human SF295 cells after 1 hr; type: functional, cell-based; settings: SF-295, 1 h
[5] = test system: SF-295; assay: Cytotoxicity against human SF295 cells after 48 hrs; type: functional, cell-based; settings: SF-295, 48 h
[6] = test system: HL-60; assay: Cytotoxicity against human HL60 cells; type: functional
[7] = test system: K562; assay: Cytotoxicity against human K562 cells; type: functional
[8] = test system: SR; assay: Cytotoxicity against human SR cells; type: functional
[9] = test system: A549; assay: Cytotoxicity against human A549 cells; type: functional
[10] = test system: EKVX; assay: Cytotoxicity against human EKVX cells; type: functional
[11] = test system: HOP-62; assay: Cytotoxicity against human HOP62 cells; type: functional
[12] = test system: HOP-92; assay: Cytotoxicity against human HOP92 cells; type: functional
[13] = test system: NCI-H23; assay: Cytotoxicity against human NCI-H23 cells; type: functional
[14] = test system: NCI-H322M; assay: Cytotoxicity against human NCI-H322M cells; type: functional
[15] = test system: NCI-H460; assay: Cytotoxicity against human NCI-H460 cells; type: functional
[16] = test system: NCI-H522; assay: Cytotoxicity against human NCI-H522 cells; type: functional
[17] = test system: COLO 205; assay: Cytotoxicity against human COLO205 cells; type: functional
[18] = test system: KM12; assay: Cytotoxicity against human KM12 cells; type: functional
[19] = test system: SF-268; assay: Cytotoxicity against human SF268 cells; type: functional
[20] = test system: SNB-75; assay: Cytotoxicity against human SNB75 cells; type: functional
[21] = test system: U-251; assay: Cytotoxicity against human U251 cells; type: functional
[22] = test system: LOX IMVI; assay: Cytotoxicity against human LOXIMVI cells; type: functional
[23] = test system: Malme-3M; assay: Cytotoxicity against human MALME-3M cells; type: functional
[24] = test system: M14; assay: Cytotoxicity against human M14 cells; type: functional
[25] = test system: SK-MEL-2; assay: Cytotoxicity against human SK-MEL-2 cells; type: functional
[26] = test system: SK-MEL-28; assay: Cytotoxicity against human SK-MEL-28 cells; type: functional
[27] = test system: SK-MEL-5; assay: Cytotoxicity against human SK-MEL-5 cells; type: functional
[28] = test system: UACC-257; assay: Cytotoxicity against human UACC257 cells; type: functional
[29] = test system: IGROV-1; assay: Cytotoxicity against human IGROV1 cells; type: functional
[30] = test system: OVCAR-3; assay: Cytotoxicity against human OVCAR-3 cells; type: functional
[31] = test system: OVCAR-4; assay: Cytotoxicity against human OVCAR4 cells; type: functional
[32] = test system: OVCAR-5; assay: Cytotoxicity against human OVCAR5 cells; type: functional
[33] = test system: OVCAR-8; assay: Cytotoxicity against human OVCAR8 cells; type: functional
[34] = test system: SK-OV-3; assay: Cytotoxicity against human SKOV3 cells; type: functional
[35] = Cytotoxicity against human 786-O cells; type: functional
[36] = test system: A498; assay: Cytotoxicity against human A498 cells; type: functional
[37] = test system: RXF 393; assay: Cytotoxicity against human RXF393 cells; type: functional
[38] = test system: SN12C; assay: Cytotoxicity against human SN12C cells; type: functional
[39] = test system: TK-10; assay: Cytotoxicity against human TK10 cells; type: functional
[40] = test system: UO-31; assay: Cytotoxicity against human UO31 cells; type: functional
[41] = test system: PC-3; assay: Cytotoxicity against human PC3 cells; type: functional
[42] = test system: MCF7; assay: Cytotoxicity against human MCF7 cells; type: functional
[43] = test system: MDA-MB-231; assay: Cytotoxicity against human MDA-MB-231 cells; type: functional
[44] = Cytotoxicity against human Hs 578T cells; type: functional
[45] = test system: MDA-MB-435; assay: Cytotoxicity against human MDA-MB-435 cells; type: functional
[46] = test system: BT-549; assay: Cytotoxicity against human BT549 cells; type: functional
[47] = test system: T47D; assay: Cytotoxicity against human T47D cells; type: functional
[48] = read-out: pLC50 (the source's name) (converted)

Compound: CC(C)=CCC/C(C)=C/Cc1c(O)cc(/C=C/c2cc(O)c3c(c2)C[C@@H]2C(C)(C)[C@H](O)[C@H](O)C[C@@]2(C)O3)cc1O [SCHWEINFURTHIN A]
- IC50 [1]: 43 µg/mL (≈ 78.4 µM)
- IC50 [2]: 20 µg/mL (≈ 36.4 µM)
- IC50 [3]: 3.7 µg/mL (≈ 6.74 µM)
- IC50 [4]: 47 µg/mL (≈ 85.7 µM)
- IC50 [5]: < 0.01 ng/mL
- GI50 [6]: 0.0158 µM
- LC50 [6]: 38.9 µM
- TGI ([6]; read-out: pTGI (converted)): 0.129 µM
- GI50 [7]: 0.0646 µM
- LC50 [7]: 72.4 µM
- TGI ([7]; read-out: pTGI (converted)): 14.1 µM
- GI50 [8]: 0.0708 µM
- LC50 [8]: 74.1 µM
- TGI ([8]; read-out: pTGI (converted)): 18.2 µM
- GI50 [9]: 0.141 µM
- LC50 (concentration killing 50% of cells) [9]: 40.7 µM
- TGI ([9]; read-out: pTGI (converted)): 14.1 µM
- GI50 [10]: 0.158 µM
- LC50 [10]: 43.7 µM
- TGI ([10]; read-out: pTGI (converted)): 15.1 µM
- GI50 [11]: 0.12 µM
- LC50 [11]: 40.7 µM
- TGI ([11]; read-out: pTGI (converted)): 15.1 µM
- GI50 [12]: 2.57 µM
- LC50 [12]: 46.8 µM
- TGI ([12]; read-out: pTGI (converted)): 15.1 µM
- GI50 [13]: 3.24 µM
- LC50 [13]: 51.3 µM
- TGI ([13]; read-out: pTGI (converted)): 18.2 µM
- GI50 [14]: 6.17 µM
- LC50 [14]: 47.9 µM
- TGI ([14]; read-out: pTGI (converted)): 20.9 µM
- GI50 [15]: 0.0129 µM
- LC50 [15]: 38.9 µM
- TGI ([15]; read-out: pTGI (converted)): 12 µM
- GI50 [16]: 2.57 µM
- LC50 [16]: 26.9 µM
- TGI ([16]; read-out: pTGI (converted)): 10 µM
- GI50 [17]: 1.1 µM
- LC50 [17]: 7.08 µM
- TGI ([17]; read-out: pTGI (converted)): 2.82 µM
- GI50 [18]: 1.51 µM
- LC50 [18]: 30.2 µM
- TGI ([18]; read-out: pTGI (converted)): 14.1 µM
- GI50 [19]: 2.4 µM
- LC50 [19]: 74.1 µM
- TGI ([19]; read-out: pTGI (converted)): 20.9 µM
- GI50 [20]: 0.0151 µM
- LC50 [20]: 50.1 µM
- TGI ([20]; read-out: pTGI (converted)): 0.38 µM
- GI50 [21]: 0.0251 µM
- LC50 [21]: 49 µM
- TGI ([21]; read-out: pTGI (converted)): 22.9 µM
- GI50 [22]: 0.038 µM
- LC50 [22]: 38.9 µM
- TGI ([22]; read-out: pTGI (converted)): 17 µM
- GI50 [23]: 4.27 µM
- LC50 [23]: 53.7 µM
- TGI ([23]; read-out: pTGI (converted)): 20 µM
- GI50 [24]: 0.0158 µM
- LC50 [24]: 2.69 µM
- TGI ([24]; read-out: pTGI (converted)): 0.324 µM
- GI50 [25]: 1.7 µM
- LC50 [25]: 42.7 µM
- TGI ([25]; read-out: pTGI (converted)): 12.9 µM
- GI50 [26]: 4.57 µM
- LC50 [26]: 60.3 µM
- TGI ([26]; read-out: pTGI (converted)): 24 µM
- GI50 [27]: 0.0912 µM
- LC50 [27]: 12 µM
- TGI ([27]; read-out: pTGI (converted)): 2.82 µM
- GI50 [28]: 4.27 µM
- LC50 [28]: 43.7 µM
- TGI ([28]; read-out: pTGI (converted)): 18.2 µM
- GI50 [29]: 1.29 µM
- LC50 [29]: 34.7 µM
- TGI ([29]; read-out: pTGI (converted)): 11 µM
- GI50 [30]: 3.09 µM
- LC50 [30]: 21.9 µM
- TGI ([30]; read-out: pTGI (converted)): 7.94 µM
- GI50 [31]: 4.27 µM
- LC50 [31]: 81.3 µM
- TGI ([31]; read-out: pTGI (converted)): 24 µM
- GI50 [32]: 6.46 µM
- LC50 (concentration killing 50% of cells) [32]: 45.7 µM
- TGI ([32]; read-out: pTGI (converted)): 20 µM
- GI50 [33]: 5.13 µM
- LC50 [33]: 57.5 µM
- TGI ([33]; read-out: pTGI (converted)): 20 µM
- GI50 [34]: 2.69 µM
- LC50 [34]: 39.8 µM
- TGI ([34]; read-out: pTGI (converted)): 15.8 µM
- GI50 ([35]; 786-0): 0.01 µM
- LC50 ([35]; 786-0): 19.1 µM
- TGI ([35]; 786-0, read-out: pTGI (converted)): 3.02 µM
- GI50 [36]: 4.17 µM
- LC50 [36]: 61.7 µM
- TGI ([36]; read-out: pTGI (converted)): 22.9 µM
- GI50 [37]: 0.01 µM
- LC50 [37]: 55 µM
- TGI ([37]; read-out: pTGI (converted)): 2.09 µM
- GI50 [38]: 6.92 µM
- LC50 [38]: 61.7 µM
- TGI ([38]; read-out: pTGI (converted)): 25.1 µM
- GI50 [39]: 2.57 µM
- LC50 [39]: 41.7 µM
- TGI ([39]; read-out: pTGI (converted)): 17 µM
- GI50 [40]: 0.01 µM
- LC50 [40]: 3.63 µM
- TGI ([40]; read-out: pTGI (converted)): 0.209 µM
- GI50 [41]: 0.17 µM
- CC50 [41, 48]: 36.3 µM
- TGI ([41]; read-out: pTGI (converted)): 12.9 µM
- GI50 [42]: 0.0269 µM
- CC50 [42, 48]: 85.1 µM
- TGI ([42]; read-out: pTGI (converted)): 8.13 µM
- GI50 [43]: 4.17 µM
- CC50 [43, 48]: 70.8 µM
- TGI ([43]; read-out: pTGI (converted)): 25.1 µM
- GI50 [44]: 0.01 µM
- CC50 [44, 48]: 87.1 µM
- TGI ([44]; read-out: pTGI (converted)): 0.759 µM
- GI50 [45]: 3.8 µM
- CC50 [45, 48]: 74.1 µM
- TGI ([45]; read-out: pTGI (converted)): 33.1 µM
- GI50 [46]: 12.9 µM
- CC50 [46, 48]: 74.1 µM
- TGI ([46]; read-out: pTGI (converted)): 32.4 µM
- GI50 [47]: 3.24 µM
- CC50 [47, 48]: 97.7 µM
- TGI ([47]; read-out: pTGI (converted)): 21.9 µM
